“And” between values parts separate entries of the source, which are not always exact repeats. Equal values may be shown once.
What was measured:
Assay type in all cases: cell-based
Settings in all cases: 18-24 hrs
PPARα = target: T1, PPARα (Homo sapiens, UniProt Q07869); experiment: Transfection assay, GAL4-PPARα LBD luciferase reporter in HEK293 cells
T1 construct: expressed in transfected cells; host or cells: HEK293
T1 sequence (Q07869 239-466 limits assumed): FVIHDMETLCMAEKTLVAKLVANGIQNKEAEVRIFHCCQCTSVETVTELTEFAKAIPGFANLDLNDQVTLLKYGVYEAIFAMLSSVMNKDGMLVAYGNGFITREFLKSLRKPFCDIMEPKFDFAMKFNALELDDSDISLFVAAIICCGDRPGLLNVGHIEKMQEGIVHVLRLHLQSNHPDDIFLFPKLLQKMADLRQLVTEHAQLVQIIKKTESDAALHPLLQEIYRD
Description: (§1) HEK293 cells were grown in DMEM/F12 medium supplemented with 10% FBS and glutamine (Invitrogen) and incubated in a 5% CO2 incubator at 37° C. The cells were co-transfected using DMRIE-C reagent (Invitrogen) in serum free medium (Opti-MEM, Invitrogen) with two mammalian expression plasmids, one containing the DNA sequence coding for the ligand binding domains of either PPARα, γ or δ fused to the yeast GAL4 DNA binding domain and the other containing the promoter sequence of the yeast GAL4 (UAS) fused to the firefly luciferase cDNA reporter. The next day, the medium was changed to DMEM/F12 medium supplemented with 5% charcoal treated serum (Hyclone) and glutamine. After 6 hrs the cells were trypsinized and seeded at a density of 50,000 cells/well into 96 well plates and incubated overnight as above. The cells were then treated with test compounds or vehicle and incubated for 18-24 hrs as above. Luciferase reporter activity was measured using the Steady-Glo Luciferase Assay Kit from Promega. DMRIE-C Reagent was purchased from GIBCO Cat. No. 10459-014. OPTI-MEM I Reduced Serum Medium was purchased from GIBCO (Cat. No. 31985). Steady-Glo Luciferase Assay Kit was purchased from Promega (Part #E254B).
(§2) A variety of example compounds have been made and tested, with a range of in vitro results. Below, in Table 2, are representative compounds and data; in some cases, where multiple EC50's are shown, multiple measurements were taken. Naturally, different compounds in Formula (I) may have not activities identical to any one compound below.

PPARγ = target: T2, PPARγ (Homo sapiens, UniProt P37231); experiment: Transfection assay, GAL4-PPARγ LBD luciferase reporter in HEK293 cells
T2 construct: expressed in transfected cells; host or cells: HEK293
T2 sequence (P37231 238-503 limits assumed): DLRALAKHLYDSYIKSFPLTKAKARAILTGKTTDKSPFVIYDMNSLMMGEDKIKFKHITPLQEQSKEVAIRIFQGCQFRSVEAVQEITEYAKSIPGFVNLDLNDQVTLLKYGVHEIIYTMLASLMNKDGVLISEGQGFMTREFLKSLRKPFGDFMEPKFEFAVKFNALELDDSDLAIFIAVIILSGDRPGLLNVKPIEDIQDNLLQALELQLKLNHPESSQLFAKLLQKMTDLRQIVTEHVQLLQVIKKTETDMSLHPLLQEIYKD
Description: as §1, §2

PPARδ = target: T3, PPARδ (Homo sapiens, UniProt Q03181); experiment: Transfection assay, GAL4-PPARδ LBD luciferase reporter in HEK293 cells
T3 construct: expressed in transfected cells; host or cells: HEK293
T3 sequence (Q03181 211-439 limits assumed): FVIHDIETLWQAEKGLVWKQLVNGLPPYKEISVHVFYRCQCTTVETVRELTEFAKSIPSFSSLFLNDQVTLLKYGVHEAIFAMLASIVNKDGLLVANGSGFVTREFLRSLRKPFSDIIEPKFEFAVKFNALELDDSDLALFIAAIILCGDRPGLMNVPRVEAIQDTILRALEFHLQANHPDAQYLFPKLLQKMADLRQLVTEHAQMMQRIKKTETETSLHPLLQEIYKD
Description: as §1, §2

Structure (SMILES)	EC50 (PPARα)	EC50 (PPARγ) [nM]	EC50 (PPARδ)
CC(C)(Oc1ccc2c(c1)CCN(Cc1ccc(-c3ccc(C(F)(F)F)cc3)o1)CC2)C(=O)O [compound 10]	> 3000 nM	> 3000	53 nM and 87.7 nM
O=C(O)COc1ccc2c(c1)CCN(Cc1cc(-c3ccc(C(F)(F)F)cc3)on1)CC2 [compound 11]	> 1000 nM	> 3000	136 nM
CC(C)(Oc1ccc2c(c1)CCN(Cc1cc(-c3ccc(C(F)(F)F)cc3)on1)CC2)C(=O)O [compound 12]	> 1000 nM	> 3000	122 nM
Cc1cc(-c2ccc(C(F)(F)F)cc2)sc1CN1CCc2ccc(OCC(=O)O)cc2CC1 [compound 13]	> 3000 nM	> 3000	174 nM and 193 nM
Cc1cc(-c2ccc(C(F)(F)F)cc2)sc1CN1CCc2ccc(OC(C)(C)C(=O)O)cc2CC1 [compound 14]	> 3000 nM	> 3000	398 nM
Cc1c(-c2ccc(C(F)(F)F)cc2)csc1CN1CCc2ccc(OCC(=O)O)cc2CC1 [compound 15]	> 3000 nM	> 3000	104 nM
Cc1c(-c2ccc(C(F)(F)F)cc2)csc1CN1CCc2ccc(OC(C)(C)C(=O)O)cc2CC1 [compound 16]	> 3000 nM	> 3000	375 nM
O=C(O)COc1ccc2c(c1)CCN(Cc1csc(-c3ccc(C(F)(F)F)cc3)n1)CC2 [compound 17]	> 3000 nM	> 3000	439 nM
Cc1nc(-c2ccc(C(F)(F)F)cc2)oc1CN1CCc2ccc(OCC(=O)O)cc2CC1 [compound 18]	> 3000 nM	> 3000	174 nM
Cc1nc(-c2ccc(C(F)(F)F)cc2)oc1CN1CCc2ccc(OC(C)(C)C(=O)O)cc2CC1 [compound 19]	> 3000 nM	> 3000	231 nM
O=C(O)COc1ccc2c(c1)CCN(Cc1cnn(-c3ccc(C(F)(F)F)cc3)c1)CC2 [compound 20]	> 3000 nM	> 3000	> 1000 nM
CC(C)(Oc1ccc2c(c1)CCN(Cc1cnn(-c3ccc(C(F)(F)F)cc3)c1)CC2)C(=O)O [compound 21]	> 3000 nM	> 3000	422 nM
O=C(O)COc1ccc2c(c1)CCN(CCc1ccc(-c3ccc(C(F)(F)F)cc3)s1)CC2 [compound 22]	> 3000 nM	> 3000	> 3000 nM
O=C(O)COc1ccc2c(c1)CCN(Cc1cc(-c3ccc(C(F)(F)F)cc3)cs1)CC2 [compound 23]	> 3000 nM	> 3000	109 nM and 70.2 nM
O=C(O)COc1ccc2c(c1)CCN(Cc1cnc(-c3ccc(C(F)(F)F)cc3)s1)CC2 [compound 24]	> 1000 nM	> 3000	27.1 nM and 22 nM
CC1CN(Cc2ccc(-c3ccc(C(F)(F)F)cc3)s2)CCc2ccc(OCC(=O)O)cc21 (stereo not drawn) [compound 25]	> 1000 nM	> 3000	11 nM and 10.8 nM
CC1CN(Cc2ccc(-c3ccc(C(F)(F)F)cc3)o2)CCc2ccc(OCC(=O)O)cc21 (stereo not drawn) [compound 26]	> 3000 nM	> 3000	15.8 nM
CC(c1ccc(-c2ccc(C(F)(F)F)cc2)o1)N1CCc2ccc(OCC(=O)O)cc2CC1 (stereo not drawn) [compound 28]	> 3000 nM	> 3000	< 3 nM
CCC(c1ccc(-c2ccc(C(F)(F)F)cc2)s1)N1CCc2ccc(OCC(=O)O)cc2CC1 (stereo not drawn) [compound 30]	> 3000 nM	> 3000	0.9 nM
O=C(O)COc1ccc2c(c1)CCN(Cc1ccc(-c3ccc(Cl)cc3Cl)s1)CC2 [compound 31]	> 3000 nM	> 3000	237 nM
O=C(O)COc1ccc2c(c1)CCN(Cc1ccc(-c3ccc(OC(F)(F)F)cc3)s1)CC2 [compound 32]	> 3000 nM	> 3000	157 nM
O=C(O)COc1ccc2c(c1)CCN(Cc1ccc(-c3ccc(Cl)cc3Cl)o1)CC2 [compound 33]	> 3000 nM	> 3000	148 nM and 167 nM
O=C(O)COc1ccc2c(c1)CCN(Cc1ccc(-c3ccc(OC(F)(F)F)cc3)o1)CC2 [compound 34]	> 3000 nM	> 3000	373 nM
O=C(O)COc1ccc2c(c1)CCN(Cc1ccc(-c3ccc(Cl)cc3)o1)CC2 [compound 35]	> 3000 nM	> 3000	169 nM
Cc1cc(-c2ccc(C(F)(F)F)cc2)oc1CN1CCc2ccc(OCC(=O)O)cc2CC1 [compound 36]	> 3000 nM	> 3000	29.2 nM
O=C(O)C1(Oc2ccc3c(c2)CCN(Cc2ccc(-c4ccc(C(F)(F)F)cc4)s2)CC3)CC1 [compound 37]	> 3000 nM	> 3000	5.3 nM
O=C(O)COc1ccc2c(c1)CCN(Cc1ccc(-c3ccc(C(F)(F)F)cc3)cc1)CC2 [compound 40]	> 3000 nM	> 3000	> 1000 nM

The remaining lines, values ahead:

EC50 (PPARα)	EC50 (PPARγ) [nM]	EC50 (PPARδ)	Structure (SMILES)
> 3000 nM	> 3000	< 3 nM and 1.4 nM	CC(c1ccc(-c2ccc(C(F)(F)F)cc2)s1)N1CCc2ccc(OCC(=O)O)cc2CC1 (racemic) [compound 27]
> 3000 nM	> 1000	0.92 nM	CC(c1ccc(-c2ccc(C(F)(F)F)cc2)s1)N1CCc2ccc(OCC(=O)O)cc2CC1 (single isomer, unassigned) [27a]
> 3000 nM	> 3000	12.6 nM and 13.9 nM	CC(c1ccc(-c2ccc(C(F)(F)F)cc2)s1)N1CCc2ccc(OCC(=O)O)cc2CC1 (single isomer, unassigned) [27b]
> 3000 nM	> 3000	1.8 nM	CC(c1ccc(-c2ccc(C(F)(F)F)cc2)o1)N1CCc2ccc(OCC(=O)O)cc2CC1 (single isomer, unassigned) [28a]
> 3000 nM	> 3000	5.4 nM and 9.8 nM	CC(c1ccc(-c2ccc(C(F)(F)F)cc2)o1)N1CCc2ccc(OCC(=O)O)cc2CC1 (single isomer, unassigned) [28b]
546 nM and 758 nM	> 3000	34.1 nM and 66.6 nM	O=C(O)COc1ccc2c(c1)CCN(Cc1cc(-c3ccc(C(F)(F)F)cc3)ns1)CC2 [compound 1]
> 3000 nM	> 3000	162 nM	CC(C)(Oc1ccc2c(c1)CCN(Cc1cc(-c3ccc(C(F)(F)F)cc3)ns1)CC2)C(=O)O [compound 2]
> 3000 nM	> 3000	143 nM	O=C(O)COc1ccc2c(c1)CCN(Cc1nc(-c3ccc(C(F)(F)F)cc3)ns1)CC2 [compound 3]
> 3000 nM	> 3000	95.2 nM	CC(C)(Oc1ccc2c(c1)CCN(Cc1nc(-c3ccc(C(F)(F)F)cc3)ns1)CC2)C(=O)O [compound 4]
> 3000 nM	> 3000	51.6 nM	Cc1nc(-c2ccc(C(F)(F)F)cc2)sc1CN1CCc2ccc(OCC(=O)O)cc2CC1 [compound 5]
> 1000 nM	> 3000	243 nM	Cc1nc(-c2ccc(C(F)(F)F)cc2)sc1CN1CCc2ccc(OC(C)(C)C(=O)O)cc2CC1 [compound 6]
> 1000 nM	> 3000	85.9 nM and 123 nM	CC(C)(Oc1ccc2c(c1)CCN(Cc1ccc(-c3ccc(C(F)(F)F)cc3)s1)CC2)C(=O)O [compound 8]
> 3000 nM	> 3000	74.2 nM and 70.9 nM	O=C(O)COc1ccc2c(c1)CCN(Cc1ccc(-c3ccc(C(F)(F)F)cc3)o1)CC2 [compound 9]
> 3000 nM	622	< 3 nM	CC(c1cnc(-c2ccc(C(F)(F)F)cc2)s1)N1CCc2ccc(OCC(=O)O)cc2CC1 (stereo not drawn) [compound 29]
31 nM	> 1000	18 nM	O=C(O)C1(Oc2ccc3c(c2)CCN(Cc2ccc(-c4ccc(C(F)(F)F)cc4)o2)CC3)CC1 [compound 38]
> 1000 nM	> 1000	12 nM	O=C(O)C1(Oc2ccc3c(c2)CCN(Cc2cnc(-c4ccc(C(F)(F)F)cc4)s2)CC3)CC1 [compound 39]

Reference: patent publication US8633184B2, “Benzoazepin-oxy-acetic acid derivatives as PPAR-delta agonists used for the increase of HDL-C, lower LDL-C and lower cholesterol” (Janssen Pharmaceutica N.V., priority 2006, dated 2014)
